# System: 883617-216-R-J1-PDC complex spheroid viability
# Assay: Anticancer human tumor 883617-216-R-J1-PDC patient-derived bladder carcinoma cell line growth inhibition [POLQ]
# Settings: for IC50: curve of first compound; for viability, T/C: stronger effect = lower value
# Procedure, shortened: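 Three-cell-type spheroids modelling solid tumor plus stroma served as the readout system; POL inhibitors were tested individually and in combination, concentration ranges set by clinical Cmax where known.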
# [1] = second compound 0.0316 µM, first compound 0.0316 µM
# [2] = second compound 0.0316 µM, first compound 0.1 µM
# [3] = second compound 0.0316 µM, first compound 0.316 µM
# [4] = second compound 0.0316 µM, first compound 1 µM
# [5] = second compound 0.0316 µM, first compound 3.16 µM
# [6] = second compound 0.0316 µM, first compound 10 µM
# [7] = second compound 0.1 µM, first compound 0.0316 µM
# [8] = second compound 0.1 µM, first compound 0.1 µM
# [9] = second compound 0.1 µM, first compound 0.316 µM
# [10] = second compound 0.1 µM, first compound 1 µM
# [11] = second compound 0.1 µM, first compound 3.16 µM
# [12] = second compound 0.1 µM, first compound 10 µM
# [13] = second compound 0.316 µM, first compound 0.0316 µM
# [14] = second compound 0.316 µM, first compound 0.1 µM
# [15] = second compound 0.316 µM, first compound 0.316 µM
# [16] = second compound 0.316 µM, first compound 1 µM
# [17] = second compound 0.316 µM, first compound 3.16 µM
# [18] = second compound 0.316 µM, first compound 10 µM
# [19] = second compound 1 µM, first compound 0.0316 µM
# [20] = second compound 1 µM, first compound 0.1 µM
# [21] = second compound 1 µM, first compound 0.316 µM
# [22] = second compound 1 µM, first compound 1 µM
# [23] = second compound 1 µM, first compound 3.16 µM
# [24] = second compound 1 µM, first compound 10 µM
# [25] = second compound 3.16 µM, first compound 0.0316 µM
# [26] = second compound 3.16 µM, first compound 0.1 µM
# [27] = second compound 3.16 µM, first compound 0.316 µM
# [28] = second compound 3.16 µM, first compound 1 µM
# [29] = second compound 3.16 µM, first compound 3.16 µM
# [30] = second compound 3.16 µM, first compound 10 µM
# [31] = second compound 10 µM, first compound 0.0316 µM
# [32] = second compound 10 µM, first compound 0.1 µM
# [33] = second compound 10 µM, first compound 0.316 µM
# [34] = second compound 10 µM, first compound 1 µM
# [35] = second compound 10 µM, first compound 3.16 µM
# [36] = second compound 10 µM, first compound 10 µM
# 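Note: spheroids exposed to compounds for seven days before readout.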
# 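Throughout, for viability, T/C: 100% = DMSO vehicle control viability.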
structure (smiles),measurement,setting,value
COc1cc(C2c3cc4c(cc3C(OC3OC5COC(C)OC5C(O)C3O)C3COC(=O)C23)OCO4)cc(OC)c1O (stereo unspecified) + Cc1cccc(N(C)C(=O)C2C(O)CCN2c2nc(C)cc(C(F)(F)F)c2C#N)c1,IC50,second compound 0.0316 µM,> 10 µM
same,IC50,second compound 0.1 µM,6.38 µM
same,IC50,second compound 0.316 µM,> 10 µM
same,IC50,second compound 1 µM,> 10 µM
same,IC50,second compound 3.16 µM,> 10 µM
same,IC50,second compound 10 µM,> 10 µM
same,"viability, T/C",[1],98.5%
same,"viability, T/C",[2],95.8%
same,"viability, T/C",[3],75.2%
same,"viability, T/C",[4],66%
same,"viability, T/C",[5],64%
same,"viability, T/C",[6],54.8%
same,"viability, T/C",[7],109%
same,"viability, T/C",[8],97.8%
same,"viability, T/C",[9],86.3%
same,"viability, T/C",[10],68.1%
same,"viability, T/C",[11],59.3%
same,"viability, T/C",[12],44.7%
same,"viability, T/C",[13],96.7%
same,"viability, T/C",[14],85.9%
same,"viability, T/C",[15],70%
same,"viability, T/C",[16],66.7%
same,"viability, T/C",[17],54.4%
same,"viability, T/C",[18],53.6%
same,"viability, T/C",[19],90%
same,"viability, T/C",[20],102%
same,"viability, T/C",[21],76.9%
same,"viability, T/C",[22],64.5%
same,"viability, T/C",[23],54.9%
same,"viability, T/C",[24],52.6%
same,"viability, T/C",[25],121%
same,"viability, T/C",[26],94.5%
same,"viability, T/C",[27],77.8%
same,"viability, T/C",[28],61.3%
same,"viability, T/C",[29],66.5%
same,"viability, T/C",[30],49.6%
same,"viability, T/C",[31],96.8%
same,"viability, T/C",[32],104%
same,"viability, T/C",[33],73%
same,"viability, T/C",[34],73.2%
same,"viability, T/C",[35],60%
same,"viability, T/C",[36],55.5%
Nc1ccn(C2OC(CO)C(O)C2(F)F)c(=O)n1 (stereo unspecified) + Cc1cccc(N(C)C(=O)C2C(O)CCN2c2nc(C)cc(C(F)(F)F)c2C#N)c1,IC50,second compound 0.0316 µM,< 0.0316 µM
same,IC50,second compound 0.1 µM,< 0.0316 µM
same,IC50,second compound 0.316 µM,< 0.0316 µM
same,IC50,second compound 1 µM,< 0.0316 µM
same,IC50,second compound 3.16 µM,< 0.0316 µM
same,IC50,second compound 10 µM,< 0.0316 µM
same,"viability, T/C",[1],35.8%
same,"viability, T/C",[2],33.2%
same,"viability, T/C",[3],41.2%
same,"viability, T/C",[4],41.4%
same,"viability, T/C",[5],33.5%
same,"viability, T/C",[6],31.1%
same,"viability, T/C",[7],28%
same,"viability, T/C",[8],45.6%
same,"viability, T/C",[9],31.8%
same,"viability, T/C",[10],38.2%
same,"viability, T/C",[11],36.9%
same,"viability, T/C",[12],24.6%
same,"viability, T/C",[13],30.1%
same,"viability, T/C",[14],31.9%
same,"viability, T/C",[15],34%
same,"viability, T/C",[16],38.5%
same,"viability, T/C",[17],31.6%
same,"viability, T/C",[18],35.5%
same,"viability, T/C",[19],32.5%
same,"viability, T/C",[20],27.6%
same,"viability, T/C",[21],33.8%
same,"viability, T/C",[22],36.5%
same,"viability, T/C",[23],39.3%
same,"viability, T/C",[24],34.7%
same,"viability, T/C",[25],35%
same,"viability, T/C",[26],28.4%
same,"viability, T/C",[27],41.2%
same,"viability, T/C",[28],39.8%
same,"viability, T/C",[29],40.9%
same,"viability, T/C",[30],27.4%
same,"viability, T/C",[31],37.9%
same,"viability, T/C",[32],35.5%
same,"viability, T/C",[33],39.2%
same,"viability, T/C",[34],39.2%
same,"viability, T/C",[35],39.1%
same,"viability, T/C",[36],31.7%
O=c1[nH]cc(F)c(=O)[nH]1 + Cc1cccc(N(C)C(=O)C2C(O)CCN2c2nc(C)cc(C(F)(F)F)c2C#N)c1,IC50,second compound 0.0316 µM,> 10 µM
same,IC50,second compound 0.1 µM,> 10 µM
same,IC50,second compound 0.316 µM,> 10 µM
same,IC50,second compound 1 µM,> 10 µM
same,IC50,second compound 3.16 µM,> 10 µM
same,IC50,second compound 10 µM,> 10 µM
same,"viability, T/C",[1],97%
same,"viability, T/C",[2],104%
same,"viability, T/C",[3],94.7%
same,"viability, T/C",[4],89.7%
same,"viability, T/C",[5],79.4%
same,"viability, T/C",[6],57.8%
same,"viability, T/C",[7],93.3%
same,"viability, T/C",[8],97.2%
same,"viability, T/C",[9],89.3%
same,"viability, T/C",[10],102%
same,"viability, T/C",[11],75.9%
same,"viability, T/C",[12],62.3%
same,"viability, T/C",[13],104%
same,"viability, T/C",[14],107%
same,"viability, T/C",[15],100%
same,"viability, T/C",[16],109%
same,"viability, T/C",[17],75.1%
same,"viability, T/C",[18],64.8%
same,"viability, T/C",[19],101%
same,"viability, T/C",[20],105%
same,"viability, T/C",[21],94.6%
same,"viability, T/C",[22],88.2%
same,"viability, T/C",[23],70.7%
same,"viability, T/C",[24],66.4%
same,"viability, T/C",[25],101%
same,"viability, T/C",[26],90.1%
same,"viability, T/C",[27],104%
same,"viability, T/C",[28],85.6%
same,"viability, T/C",[29],79.5%
same,"viability, T/C",[30],65.7%
same,"viability, T/C",[31],115%
same,"viability, T/C",[32],102%
same,"viability, T/C",[33],93.8%
same,"viability, T/C",[34],89.9%
same,"viability, T/C",[35],78.6%
same,"viability, T/C",[36],74.6%

# Source: PubChem BioAssay AID1963833 (Molecular Pharmacology Branch, DTP, NCI, 2024)
